These are literature values, as cited in patent US5635503A, “Dihydropyridine npy antagonists: piperazine derivatives” (Bristol-Myers Squibb Company, priority 1995, dated 1997).

The target of one data set is T1, Y2 receptor (Rattus norvegicus, UniProt Q9ERC0).
T1 sequence (Q9ERC0 1-381): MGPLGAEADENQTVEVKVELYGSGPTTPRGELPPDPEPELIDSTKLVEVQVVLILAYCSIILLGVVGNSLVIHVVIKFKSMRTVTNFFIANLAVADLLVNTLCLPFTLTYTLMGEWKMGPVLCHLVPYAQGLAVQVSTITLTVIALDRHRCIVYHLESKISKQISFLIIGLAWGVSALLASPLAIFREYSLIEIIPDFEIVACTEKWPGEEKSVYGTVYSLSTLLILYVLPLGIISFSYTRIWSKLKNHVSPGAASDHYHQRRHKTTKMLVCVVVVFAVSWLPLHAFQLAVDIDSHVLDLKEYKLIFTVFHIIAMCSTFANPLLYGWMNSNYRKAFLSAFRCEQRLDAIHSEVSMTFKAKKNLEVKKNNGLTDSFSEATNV
To be noted: functional selectivity for the Y2 receptor.

For data set [1], the system named is vasoconstrictive activity of the NPY1 agonist [Leu31, Pro34]NPY.
The test system of data set [2] is NPY-related increases in diastolic blood pressure. The note with it: anesthetized guinea pig model.

Regarding `N=C(N)N(CCCCCCNCc1ccc2ccccc2c1)CCCCCCN(CCCCCCNCc1ccc2ccccc2c1)C(=N)N` [Example 6b], in the data set on rat femoral artery, the functional antagonism result is “display functional antagonism”. In addition, the “effect on the NPY2 agonist NPY13-36” value on Y2 receptor is reported as “antagonized the effect”. Also, the “effect on vasoconstrictive activity of the NPY1 agonist [Leu31, Pro34]NPY” value in data set [1] is on record as “had no effect”.

`CN(C)CC1CCC(CNC(=N)c2ccc(CC(NC(=O)C(Cc3ccccc3)NS(=O)(=O)c3ccc4ccccc4c3)C(=O)N3CCCC3)cc2)CC1` (stereo not shown) [SR 120819A]: the “antagonism of NPY-related increases in diastolic blood pressure” value in data set [2] is reported as “antagonized”.
